The values below are quoted from earlier work in US12629325B2, “Increased solubilization of Bemotrizinol” (DSM IP ASSETS B.V., priority 2020, dated 2026).

For this data set the following is noted: for Solubility in esters: particularly C12-15 alkyl benzoate.
[1] abbreviates: listed as UV-filter of the formula (I).

Where two headings read alike, the source gives them in different places.

For `CCCCC(CC)COc1ccc(-c2nc(-c3ccc(OC)cc3)nc(-c3ccc(OCC(CC)CCCC)cc3O)n2)c(O)c1` (stereo not drawn) [Bemotrizinol, 2,4-Bis-{[4-(2-ethyl-hexyloxy)-2-hydroxy]-phenyl}-6-(4-methoxyphenyl)-1,3,5-triazine], the Solubility in alkanes result is recorded as “very low”, the Solubility in esters result was “moderate solubility” and the Solubility in water entry is “very low”. For the same compound, under setting [1], the Solubility in alkanes result is reported as “insoluble”, the Solubility in esters result is on record as “very soluble” and the Solubility in water result is recorded as “insoluble”.
